For assay [1], the target named is DegS K243D (residues 27–355, N-terminal His6 tag) (E. coli) (UniProt P0AEE3). The assay is described as follows: enzyme kinetics.
In assay [2] the target is T1, wild-type DegS (Escherichia coli, UniProt P0AEE3). The assay is described as follows: OMP-peptide activation of RseA cleavage by wild-type DegS. The format is biochemical, E. coli. The settings on record: for Hill Constant (peptide activation): 200 μM RseA.
In assay [3] the target is T1, wild-type DegS. It counts as biochemical, E. coli. The settings on record: for L0, equilibrium constant T/R of unliganded enzyme / KTP/KRP / kr, rate constant for cleavage of RseA by substrate-bound R-state subunits: MWC global fit; for L0, equilibrium constant T/R of unliganded enzyme: enzyme parameter, peptide-independent; for KTP/KRP: peptide preference for relaxed state; for kr, rate constant for cleavage of RseA by substrate-bound R-state subunits: same value for all enzymes and peptides.

Assay [4] addresses T2, K243D mutant of DegS (Escherichia coli, UniProt P0AEE3, K243D). In words: Global fit to MWC allosteric model, K243D DegS. It counts as biochemical, E. coli. The settings on record: K243D, MWC global fit.
The target in assay [5] is T3, D320A DegS (Escherichia coli, UniProt P0AEE3, D320A). The assay is described as follows: Global fit to MWC allosteric model, D320A DegS. The conditions noted are these: D320A, MWC global fit; for KRS, dissociation constant of RseA substrate for R-state subunit / KTS, dissociation constant of RseA substrate for T-state subunit: not peptide, binding; for L0, equilibrium constant T/R of unliganded enzyme: enzyme parameter, peptide-independent; for KTP/KRP: peptide preference for relaxed state; for kr, rate constant for cleavage of RseA by substrate-bound R-state subunits: same value for all enzymes and peptides. It counts as biochemical, E. coli.

For assay [6], the target named is T3, D320A DegS. The assay is described as follows: OMP-peptide activation of RseA cleavage by D320A DegS. The format is biochemical, E. coli. The conditions noted are these: D320A; for Hill Constant (peptide activation): 200 μM RseA.
In assay [7] the target is T2, K243D mutant of DegS. The assay is described as follows: OMP-peptide activation of RseA cleavage by K243D DegS. It counts as biochemical, E. coli. The conditions noted are these: K243D.
The target of assay [8] is T1, wild-type DegS. It counts as biochemical, E. coli. The settings on record: wild-type DegS 0.9 μM trimer; 20 μM rhodamine-FP; saturating peptide.
Assay [9] addresses T4, DegS D320A (residues 27–355, N-terminal His6 tag) (E. coli, UniProt P0AEE3 27-355, D320A).
T4 sequence (looked up): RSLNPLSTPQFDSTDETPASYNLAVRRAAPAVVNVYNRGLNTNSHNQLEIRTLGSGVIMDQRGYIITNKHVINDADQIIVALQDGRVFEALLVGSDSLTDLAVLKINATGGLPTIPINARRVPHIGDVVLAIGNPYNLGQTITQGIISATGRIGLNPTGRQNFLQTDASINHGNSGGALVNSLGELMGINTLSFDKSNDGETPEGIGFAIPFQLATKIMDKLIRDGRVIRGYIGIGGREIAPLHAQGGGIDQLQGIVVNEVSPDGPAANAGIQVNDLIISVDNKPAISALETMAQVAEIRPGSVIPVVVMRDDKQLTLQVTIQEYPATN
In words: enzyme kinetics.

Assay [10] deals with T5, DegS K243D (residues 27–355, N-terminal His6 tag) (E. coli, UniProt P0AEE3 27-355, K243D).
T5 sequence (looked up): T4 sequence (looked up) with K217D, A294D
The assay is described as follows: enzyme kinetics.

Where [11] appears, read: saturating peptide, single sub-KM RseA concentration.

Eight molecules from publication PMC2742306 (Molecular cell, 2009) can be followed below.

Where a chain is given by its changes, count along the chain named. Marks after values point to notes of the source that are not given here. Residues, ends and D or L forms follow the SMILES beside them. No end group written: not given here.

T1 sequence (P0AEE3 27-355): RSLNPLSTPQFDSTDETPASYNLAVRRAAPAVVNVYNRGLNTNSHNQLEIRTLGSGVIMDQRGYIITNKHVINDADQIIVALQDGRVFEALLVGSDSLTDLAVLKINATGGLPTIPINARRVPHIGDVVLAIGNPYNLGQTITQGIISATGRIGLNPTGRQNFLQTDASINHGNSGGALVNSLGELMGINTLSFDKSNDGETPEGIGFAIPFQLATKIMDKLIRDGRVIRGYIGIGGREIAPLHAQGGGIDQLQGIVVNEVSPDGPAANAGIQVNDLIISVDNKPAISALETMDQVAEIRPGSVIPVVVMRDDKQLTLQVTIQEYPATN
T2 sequence (P0AEE3 27-355 K243D): as the sequence (P0AEE3 27-355) above, with K217D counted along it

In assay [1], YYF tripeptide came in with a KRP (dissociation constant for an R-state subunit) of 1.24 µM and a KTP (dissociation constant for a T-state subunit) of 3.76 µM.

In the case of DNRDGNVYQF [DNRDGNVYQF], the “Hill Constant (peptide activation)” value on wild-type DegS [2] (wild-type DegS) is on record as 1.6 ± 0.1; on D320A DegS [6], 1.2 ± 0.1; at K243D mutant of DegS [7] (200 μM RseA), 1.3 ± 0.1. The “L0, equilibrium constant T/R of unliganded enzyme” value (from here on “L0, equilibrium constant T/R”) at wild-type DegS [3] amounted to 15000; on K243D mutant of DegS [4] (enzyme parameter, peptide-independent), 180; on D320A DegS [5], 350. The KTP/KRP amounted to 6.1 at wild-type DegS [3], 1.9 on K243D mutant of DegS [4] (peptide preference for relaxed state) and 2.8 at D320A DegS [5]. Besides, the “kr, rate constant for cleavage of RseA by substrate-bound R-state subunits” value (shortened to “kr … by substrate-bound R-state subunits”) on wild-type DegS [3] worked out at 3.3 s⁻¹; at K243D mutant of DegS [4] (same value for all enzymes and peptides), 3.3 s⁻¹; at D320A DegS [5], 3.3 s⁻¹. For the same molecule, the “KRS, dissociation constant of RseA substrate for R-state subunit” value on K243D mutant of DegS [4] (RseA, not peptide, binding) was 150 µM; at D320A DegS [5], 150 µM. Besides, the “KTS, dissociation constant of RseA substrate for T-state subunit” value is 505 µM on K243D mutant of DegS [4] (RseA, not peptide, binding) and 505 µM at D320A DegS [5]. Further, the “RseA cleavage relative to wild-type DegS” value on D320A DegS [6] (setting [11]) and on K243D mutant of DegS [7] (setting [11]) was “about three-fold faster” in each case.

Usually EC50 stands for the concentration at which the effect is half-maximal. A high value points to weaker potency. In turn, KRRKGKVYYF [KRRKGKVYYF] had an EC50 at wild-type DegS [2] of no more than 1 µM. For the same molecule, at wild-type DegS [2] (wild-type DegS), the “Hill Constant (peptide activation)” value is ~1.2 ^a. Besides, the “apparent affinity (in words)” value on wild-type DegS [2] (wild-type DegS, among tested peptides) is recorded as “highest apparent affinity”. For the same molecule, the “maximal activation (in words)” value on wild-type DegS [2] (wild-type DegS, saturating peptide) was “lowest maximal activation”. In addition, on wild-type DegS [3], the “L0, equilibrium constant T/R” value came out at 15000; the KTP/KRP was determined as 3.3; the “kr … by substrate-bound R-state subunits” value was found to be 3.3 s⁻¹. For the same molecule, on wild-type DegS [3] (saturating peptide and saturating RseA substrate, MWC model), the “DegS molecules in active conformation” value was found to be 9%. Besides, at wild-type DegS [8], the “rate of rhodamine-FP modification in presence of peptide (order)” value is on record as “slowest”.

On to EDGEDGDYYF [EDGEDGDYYF], for which, on wild-type DegS [2] (wild-type DegS), the “Hill Constant (peptide activation)” value is reported as 1.3 ± 0.1. The “rate of rhodamine-FP modification in presence of peptide (order)” value at wild-type DegS [8] is recorded as “slower still”. Moreover, on D320A DegS [5], the “KRS, dissociation constant of RseA substrate for R-state subunit” value stood at 150 µM; the “KTS, dissociation constant of RseA substrate for T-state subunit” value was found to be 505 µM; the “L0, equilibrium constant T/R” value is on record as 350; the KTP/KRP is recorded as 2.1. In addition, at D320A DegS [5], the “kr … by substrate-bound R-state subunits” value was found to be 3.3 s⁻¹. The “Hill Constant (peptide activation)” value on D320A DegS [6] was determined as 1.3 ± 0.1.

On to `NC(=O)CC[C@H](NC(=O)[C@@H](N)Cc1ccc(O)cc1)C(=O)N[C@@H](Cc1ccccc1)C(=O)O` [YQF] (H-Tyr-Gln-Phe-OH), for which, at wild-type DegS [2] (wild-type DegS), the “displacement in concentration between YYF and YQF activation curves” value is reported as roughly 10 fold; the “Hill Constant (peptide activation)” value came out at 1.6 ± 0.1.

EDGEDGDYYF [OMP peptide EDGEDGDYYF]: in assay [9], the “KRP (dissociation constant for an R-state subunit)” value came out at 4.02 µM and the “KTP (dissociation constant for a T-state subunit)” value is 8.5 µM.

On to DNRDGNVYYF [OMP peptide DNRDGNVYYF], for which, in assay [10], the “KRP (dissociation constant for an R-state subunit)” value worked out at 0.07 µM and the “KTP (dissociation constant for a T-state subunit)” value is 0.14 µM. In addition, in [9], the “KRP (dissociation constant for an R-state subunit)” value stood at 0.06 µM and the “KTP (dissociation constant for a T-state subunit)” value was found to be 0.2 µM.

As for DNRDGNVYQF [OMP peptide DNRDGNVYQF], in assay [10], the “KRP (dissociation constant for an R-state subunit)” value came out at 1.64 µM and the “KTP (dissociation constant for a T-state subunit)” value was found to be 3.19 µM. Moreover, in [9], the “KRP (dissociation constant for an R-state subunit)” value came to 1.09 µM and the “KTP (dissociation constant for a T-state subunit)” value was 2.98 µM.
